# Reference: ChEMBL document CHEMBL1145651, “A constituent of Pterocarpus marsupium, (-)-epicatechin, as a potential antidiabetic agent” (1983)
# What was measured:
# Assay type in all cases: functional
# Conditions in all cases: route intraperitoneal
# [1] = system: Rattus norvegicus; assay: Antihyperglycemic activity in Wistar rat assessed as decrease in alloxan-induced blood glucose level at 30 mg/kg, ip pretreated 24 hrs before alloxan challenge
# [2] = system: Rattus norvegicus; assay: Antihyperglycemic activity in Wistar rat assessed as decrease in alloxan-induced blood glucose level at 30 mg/kg, ip administered 288 hrs after alloxan challenge
# [3] = system: Rattus norvegicus; assay: Antihyperglycemic activity in Wistar rat assessed as decrease in alloxan-induced blood glucose level at 30 mg/kg, ip administered 120 hrs after alloxan challenge
# [4] = system: Rattus norvegicus; assay: Antihyperglycemic activity in Wistar rat assessed as decrease in alloxan-induced blood glucose level at 30 mg/kg, ip administered 168 hrs after alloxan challenge
# [5] = system: Rattus norvegicus; assay: Antihyperglycemic activity in Wistar rat assessed as decrease in alloxan-induced blood glucose level at 30 mg/kg, ip administered 72 to 288 hrs after alloxan challenge
# [6] = system: Rattus norvegicus; assay: Antihyperglycemic activity in Wistar rat assessed as decrease in alloxan-induced blood glucose level at 30 mg/kg, ip administered 72 hrs after alloxan challenge
smiles,measurement,setting,value
Oc1cc(O)c2c(c1)O[C@H](c1ccc(O)c(O)c1)[C@H](O)C2 [(-)-EPICATECHIN],Activity,[1],111 mg/dL
same,Activity,[2],117 mg/dL
same,Activity,[3],120 mg/dL
same,Activity,[4],128 mg/dL
same,Activity,[5],129 mg/dL
same,Activity,[6],138 mg/dL
